Measured values from US20240374598A1, “INHIBITORS OF HUMAN IMMUNODEFICIENCY VIRUS REPLICATION” (ViiV HEALTHCARE UK (NO.5) LIMITED, priority 2018, published 2024).

Columns and labels:
[1] = Compound cytotoxicity, XTT-based colorimetric assay; assay type: cell-based; conditions: human; uninfected MT2 cells, day 4, XTT assay
Protocol: Compound cytotoxicity and the corresponding CC50 values were determined using the same protocol as described in the antiviral assay except that uninfected cells were used. Cytotoxicity was assessed on day 4 in uninfected MT2 cells by using a XTT (2,3-bis[2-Methoxy-4-nitro-5-sulfophenyl]-2H-tetrazolium-5-carboxyanilide inner salt)-based colorimetric assay (Sigma-Aldrich, St Louis, Mo).

[2] = system: recombinant NL4-3 virus (nef section replaced with Renilla luciferase gene) in MT-2 cells; test: HIV cell culture assay (antiviral activity, luciferase readout); assay type: cell-based; conditions: NL43, MT-2 cells infected for 4-5 days with recombinant NL4-3 Renilla luciferase virus
Protocol: HIV cell culture assay—MT-2 cells, 293T cells and the proviral DNA clone of NL4-3 virus were obtained from the NIH AIDS Research and Reference Reagent Program. MT-2 cells were propagated in RPMI 1640 media supplemented with 10% heat inactivated fetal bovine serum (FBS), […]. The 293T cells were propagated in DMEM media supplemented with 10% heat inactivated FBS, […]. A recombinant NL4-3 proviral clone, in which a section of the nef gene was replaced with the Renilla luciferase gene, was used to make the reference virus used in these studies. The recombinant virus was prepared through transfection of the recombinant NL4-3 proviral clone into 293T cells using Transit-293 Transfection Reagent from Mirus Bio LLC (Madison, WI). Supernatent was harvested after 2-3 days and the amount of virus present was titered in MT-2 cells using luciferase enzyme activity as a marker by measuring luciferase enzyme activity. Luciferase was quantitated using the EnduRen Live Cell Substrate from Promega (Madison, WI). Antiviral activities of compounds toward the recombinant virus were quantified by measuring luciferase activity in MT-2 cells infected for 4-5 days with the recombinant virus in the presence of serial dilutions of the compound.
The 50% effective concentration (EC50) was calculated by using the exponential form of the median effect equation where (Fa)=1/[1+(ED50/drug conc.)m] (Johnson VA, Byington RT. Infectivity Assay. In Techniques in HIV Research. ed. Aldovini A, Walker BD. 71-76. New York: Stockton Press. 1990). The 50% inhibitory concentration (EC50) was calculated by using the exponential form of the median effect equation where percent inhibition=1/[1+(EC50/drug concentration)m], where m is a parameter that reflects the slope of the concentration-response curve.

Structure (SMILES): COc1nc2nc([C@H](Cc3cc(F)cc(F)c3)NC(=O)Cn3nc(C(F)F)c4c3C(F)(F)C3CC43)n(-c3ccc(Cl)c4c(NS(C)(=O)=O)nn(C)c34)c(=O)c2cc1Cl (stereo in doubt) [Example 37, N—((S)-1-(6-chloro-3-(4-chloro-1-methyl-3-(methylsulfonamido)-1H-indazol-7-yl)-7-methoxy-4-oxo-3,4-dihydropyrido[2,3-d]pyrimidin-2-yl)-2-(3,5-difluorophenyl)ethyl)-2-((3bS,4aR)-3-(difluoromethyl)-5,5-difluoro-3b,4,4a,5-tetrahydro-1H-cyclopropa[3,4]cyclopenta[1,2-c]pyrazol-1-yl)acetamide]
- CC50 at 4 day [1]: > 1000 nM
- EC50 [2]: 0.044 nM

Structure (SMILES): CC(C)Oc1ccc2c(=O)n(-c3ccc(Cl)c4c(NS(C)(=O)=O)nn(C)c34)c([C@H](Cc3cc(F)cc(F)c3)NC(=O)Cn3nc(C(F)F)c4c3C(F)(F)C3CC43)nc2n1 (stereo in doubt) [Example 38, N—((S)-1-(3-(4-chloro-1-methyl-3-(methylsulfonamido)-1H-indazol-7-yl)-7-isopropoxy-4-oxo-3,4-dihydropyrido[2,3-d]pyrimidin-2-yl)-2-(3,5-difluorophenyl)ethyl)-2-((3bS,4aR)-3-(difluoromethyl)-5,5-difluoro-3b,4,4a,5-tetrahydro-1H-cyclopropa[3,4]cyclopenta[1,2-c]pyrazol-1-yl)acetamide]
- CC50 at 4 day [1]: > 1000 nM
- EC50 [2]: 0.045 nM

Structure (SMILES): COc1cnc2c(=O)n(-c3ccc(Cl)c4c(NS(C)(=O)=O)nn(C)c34)c([C@H](Cc3cc(F)cc(F)c3)NC(=O)Cn3nc(C(F)F)c4c3C(F)(F)C3CC43)nc2c1 (stereo in doubt) [Example 39, N—((S)-1-(3-(4-chloro-1-methyl-3-(methylsulfonamido)-1H-indazol-7-yl)-7-methoxy-4-oxo-3,4-dihydropyrido[3,2-d]pyrimidin-2-yl)-2-(3,5-difluorophenyl)ethyl)-2-((3bS,4aR)-3-(difluoromethyl)-5,5-difluoro-3b,4,4a,5-tetrahydro-1H-cyclopropa[3,4]cyclopenta[1,2-c]pyrazol-1-yl)acetamide]
- CC50 at 4 day [1]: > 1000 nM
- EC50 [2]: 0.016 nM

Structure (SMILES): Cn1nc(NS(C)(=O)=O)c2c(Cl)ccc(-n3c([C@H](Cc4cc(F)cc(F)c4)NC(=O)Cn4nc(C(F)F)c5c4C(F)(F)[C@@H]4C[C@H]54)nc4cc(Br)ccc4c3=O)c21 [Example 1, N—((S)-1-(7-bromo-3-(4-chloro-1-methyl-3-(methylsulfonamido)-1H-indazol-7-yl)-4-oxo-3,4-dihydroquinazolin-2-yl)-2-(3,5-difluorophenyl)ethyl)-2-((3bS,4aR)-3-(difluoromethyl)-5,5-difluoro-3b,4,4a,5-tetrahydro-1H-cyclopropa[3,4]cyclopenta[1,2-c]pyrazol-1-yl)acetamide]
- CC50 at 4 day [1]: > 1000 nM
- EC50 [2]: 0.046 nM

Structure (SMILES): Cn1nc(NS(C)(=O)=O)c2c(Cl)ccc(-n3c([C@H](Cc4cc(F)cc(F)c4)NC(=O)Cn4nc(C(F)F)c5c4C(F)(F)[C@@H]4C[C@H]54)nc4cc(O)ccc4c3=O)c21 [Example 4, N—((S)-1-(3-(4-chloro-1-methyl-3-(methylsulfonamido)-1H-indazol-7-yl)-7-hydroxy-4-oxo-3,4-dihydroquinazolin-2-yl)-2-(3,5-difluorophenyl)ethyl)-2-((3bS,4aR)-3-(difluoromethyl)-5,5-difluoro-3b,4,4a,5-tetrahydro-1H-cyclopropa[3,4]cyclopenta[1,2-c]pyrazol-1-yl)acetamide]
- CC50 at 4 day [1]: > 1000 nM
- EC50 [2]: 0.273 nM

Structure (SMILES): COc1ccc2c(=O)n(-c3ccc(Cl)c4c(NS(C)(=O)=O)nn(C)c34)c([C@H](Cc3cc(F)cc(F)c3)NC(=O)Cn3ccc(C(C)C)n3)nc2c1 [Example 5, (S)—N-(1-(3-(4-chloro-1-methyl-3-(methylsulfonamido)-1H-indazol-7-yl)-7-methoxy-4-oxo-3,4-dihydroquinazolin-2-yl)-2-(3,5-difluorophenyl)ethyl)-2-(3-isopropyl-1H-pyrazol-1-yl)acetamide]
- CC50 at 4 day [1]: > 1000 nM
- EC50 [2]: 0.758 nM

Structure (SMILES): COc1ccc2c(=O)n(-c3ccc(Cl)c4c(NS(C)(=O)=O)nn(C)c34)c([C@H](Cc3cc(F)cc(F)c3)NC(=O)Cn3ccc(C4CC4)n3)nc2c1 [Example 6, (S)—N-(1-(3-(4-chloro-1-methyl-3-(methylsulfonamido)-1H-indazol-7-yl)-7-methoxy-4-oxo-3,4-dihydroquinazolin-2-yl)-2-(3,5-difluorophenyl)ethyl)-2-(3-cyclopropyl-1H-pyrazol-1-yl)acetamide]
- CC50 at 4 day [1]: > 1000 nM
- EC50 [2]: 0.347 nM

Structure (SMILES): COc1ccc2c(=O)n(-c3ccc(Cl)c4c(NS(C)(=O)=O)nn(C)c34)c([C@H](Cc3cc(F)cc(F)c3)NC(=O)Cn3ccc(C4CCC4)n3)nc2c1 [Example 7, (S)—N-(1-(3-(4-chloro-1-methyl-3-(methylsulfonamido)-1H-indazol-7-yl)-7-methoxy-4-oxo-3,4-dihydroquinazolin-2-yl)-2-(3,5-difluorophenyl)ethyl)-2-(3-cyclobutyl-1H-pyrazol-1-yl)acetamide]
- CC50 at 4 day [1]: > 1000 nM
- EC50 [2]: 0.899 nM

Structure (SMILES): COc1cc(F)c2c(=O)n(-c3ccc(Cl)c4c(NS(=O)(=O)C5CC5)nn(CC(F)F)c34)c([C@H](Cc3cc(F)cc(F)c3)NC(=O)Cn3nc(C(F)F)c4c3C(F)(F)[C@@H]3C[C@H]43)nc2c1 [Example 8, N—((S)-1-(3-(4-chloro-3-(cyclopropanesulfonamido)-1-(2,2-difluoroethyl)-1H-indazol-7-yl)-5-fluoro-7-methoxy-4-oxo-3,4-dihydroquinazolin-2-yl)-2-(3,5-difluorophenyl)ethyl)-2-((3bS,4aR)-3-(difluoromethyl)-5,5-difluoro-3b,4,4a,5-tetrahydro-1H-cyclopropa[3,4]cyclopenta[1,2-c]pyrazol-1-yl)acetamide]
- CC50 at 4 day [1]: > 1000 nM
- EC50 [2]: 0.15 nM

Structure (SMILES): Cn1nc(NS(C)(=O)=O)c2c(Cl)ccc(-n3c([C@H](Cc4cc(F)cc(F)c4)NC(=O)Cn4nc(C(F)F)c5c4C(F)(F)[C@@H]4C[C@H]54)nc4cc(OCCCF)ccc4c3=O)c21 [Example 9, N—((S)-1-(3-(4-chloro-1-methyl-3-(methylsulfonamido)-1H-indazol-7-yl)-7-(3-fluoropropoxy)-4-oxo-3,4-dihydroquinazolin-2-yl)-2-(3,5-difluorophenyl)ethyl)-2-((3bS,4aR)-3-(difluoromethyl)-5,5-difluoro-3b,4,4a,5-tetrahydro-1H-cyclopropa[3,4]cyclopenta[1,2-c]pyrazol-1-yl)acetamide]
- CC50 at 4 day [1]: > 1000 nM
- EC50 [2]: 0.049 nM

Structure (SMILES): CC(C)Oc1ccc2c(=O)n(-c3ccc(Cl)c4c(NS(C)(=O)=O)nn(C)c34)c([C@H](Cc3cc(F)cc(F)c3)NC(=O)Cn3nc(C(F)F)c4c3C(F)(F)[C@@H]3C[C@H]43)nc2c1 [Example 10, N—((S)-1-(3-(4-chloro-1-methyl-3-(methylsulfonamido)-1H-indazol-7-yl)-7-isopropoxy-4-oxo-3,4-dihydroquinazolin-2-yl)-2-(3,5-difluorophenyl)ethyl)-2-((3bS,4aR)-3-(difluoromethyl)-5,5-difluoro-3b,4,4a,5-tetrahydro-1H-cyclopropa[3,4]cyclopenta[1,2-c]pyrazol-1-yl)acetamide]
- CC50 at 4 day [1]: > 1000 nM
- EC50 [2]: 0.107 nM

Structure (SMILES): CCCCOc1ccc2c(=O)n(-c3ccc(Cl)c4c(NS(C)(=O)=O)nn(C)c34)c([C@H](Cc3cc(F)cc(F)c3)NC(=O)Cn3nc(C(F)F)c4c3C(F)(F)[C@@H]3C[C@H]43)nc2c1 [Example 11, N—((S)-1-(7-butoxy-3-(4-chloro-1-methyl-3-(methylsulfonamido)-1H-indazol-7-yl)-4-oxo-3,4-dihydroquinazolin-2-yl)-2-(3,5-difluorophenyl)ethyl)-2-((3bS,4aR)-3-(difluoromethyl)-5,5-difluoro-3b,4,4a,5-tetrahydro-1H-cyclopropa[3,4]cyclopenta[1,2-c]pyrazol-1-yl)acetamide]
- CC50 at 4 day [1]: > 1000 nM
- EC50 [2]: 0.208 nM

Structure (SMILES): CC(C)(C)c1ccc2c(=O)n(-c3ccc(Cl)c4c(NS(C)(=O)=O)nn(CC(F)(F)F)c34)c([C@H](Cc3cc(F)cc(F)c3)NC(=O)Cn3nc(C(F)F)c4c3C(F)(F)[C@@H]3C[C@H]43)nc2c1 [Example 28, N—((S)-1-(7-(tert-butyl)-3-(4-chloro-3-(methylsulfonamido)-1-(2,2,2-trifluoroethyl)-1H-indazol-7-yl)-4-oxo-3,4-dihydroquinazolin-2-yl)-2-(3,5-difluorophenyl)ethyl)-2-((3bS,4aR)-3-(difluoromethyl)-5,5-difluoro-3b,4,4a,5-tetrahydro-1H-cyclopropa[3,4]cyclopenta[1,2-c]pyrazol-1-yl)acetamide]
- CC50 at 4 day [1]: > 1000 nM
